Laboratory results as given in patent US9907306B2, “Compositions and methods for controlling nematode pests” (Monsanto Technology LLC, priority 2010, dated 2018).

Experiments:
[1] = system: soybean cyst nematode (SCN); experiment: SCN greenhouse soil assay on soybean plants; assay type: in vivo, H. glycines; settings: 0 day treatment, 0.25 kg/ha rate, harvested 28 days after egg inoculation
Text: Soybeans seeds are planted in 100% sand in two inch square plastic pots.
Chemical treatment is done when the soybeans show the first trifoliate beginning to emerge about 10 to 12 days after planting. At least four hours after chemical application the nematode soybean cyst nematode (SCN) eggs are applied and 28 days after the egg inoculation the test is harvested.
(§1) One milligram of chemistry per four pots is equal to one kilogram per hectare of chemical. A standard test uses four replications. For rates above 2 kg/ha, the desired amount of chemical is weighed into a 30 ml vial (example: 8 kg/ha rate=8 mg chemical in 30 ml vial). The chemical is dissolved in 2 ml of appropriate solvent, generally acetone. For rates below 2 kg/ha, 2 milligrams of chemistry is weighed into the vial and dissolved in 2 ml of the solvent. The appropriate amount of chemical concentrate is then pipetted into a separate 30 ml vial and solvent is added to bring the volume to 2 ml (example 0.5 kg/ha=0.5 ml of concentrate+1.5 ml solvent). Each dissolved concentrate is then brought to a total of 20 milliliters using 0.05% Triton X 100 surfactant solution.
(§2) Pots to be treated are moist but not saturated. To each of four pots, five milliliters of the appropriate chemical solution is pipetted to the media surface making sure to avoid contact with the base of the plant. Immediately following chemical application, using a mist nozzle, the pot surface is wetted sufficiently to saturate the pot watering in the chemistry. The chemical application is done in the morning.
(§3) Nematode eggs, either SCN or RKN, are added to distilled water to create a concentration of […] of water. At least four hours after chemical treatment (0 day testing) or 1 week later (7 day longevity testing) the eggs are applied to the treated pots plus non-treated check plants. A small hole about 1 cm deep is punched into the pot surface. One milliliter of the nematode egg slurry is pipetted into the hole. Immediately afterwards the hole is gently covered. Watering of the test plants is then restricted to only water as needed to prevent wilt for a period of 24 hours. After the 24 hour restricted watering, normal sub-irrigation watering is done for the duration of the test.

[2] = classification by the US Environmental Protection Agency; cited from earlier work
Meloidogyne incognita = experiment: M. incognita miniaturized greenhouse assay (cucumber seedling in sand, root galling); assay type: in vivo; settings: average of triplicate gall rating, scale 0=0-5%, 1=6-20%, 2=21-50%, 3=51-100% root mass galled, 10 to 12 days after inoculation
Procedure: The test compound is dissolved in an acetone solution and added to water. A sprouted cucumber seedling is placed into a vial with dry sand and the water-chemical solution is added immediately. Twenty four hours later Meloidogyne incognita eggs are added to the vials and 10 to 12 days later the roots are evaluated for nematode galling.
Cucumber seeds are sprouted for 3 days in moist paper towels. Acceptable sprouts should be 3 to 4 cm long with several lateral roots just emerging. Stock solutions of chemistry are prepared in a mixture of acetone and Triton X100 (412 mg in 500 mL) to a final concentration of 5 mg/mL. The chemical stock solution is then added to 10 mL deionized water plus 0.015% Triton X100 and mixed thoroughly. This is enough to test each condition in triplicate. Ten mL dry sand is added to each vial. At this time the solubility of the chemistry is visually determined and recorded as either ppt (large precipitates) or cloudy (fine precipitates). Seedlings are planted by tilting the vial and laying the seedling in the correct orientation so that the cotyledons are just above the sand and then tilting back to cover the radicles with sand. 3.3 ml water/chemical mix is added to each vial and the vials placed in racks under fluorescent light banks. The vials are inoculated two days after planting by adding 500 vermiform M. incognita eggs to each vial in 50 uL of deionized or spring water. The vials are then kept under the fluorescent lamps at ambient room temperature and watered as needed with 1 mL deionized water, usually twice during duration of test. Harvest of the cucumber plants is done 10 to 12 days after inoculation by washing sand off the roots. A root gall rating and visual phytotoxicity rating is assigned using the following scales: Gall rating scale (Gall: % root mass galled): 0=0-5%; 1=6-20%; 2=21-50%; and 3=51-100%. The average of the triplicate gall rating is then calculated: green=0.00-0.33 (no galls); yellow=0.67-1.33 (mild galling); orange=1.67-2.33 (moderate galling); red=2.67-3.00 (severe galling). Visual phytotoxicity scale is also assigned (Vis. tox; visual reduction in root mass compared to the control): rs1=mild stunting; rs2=moderate stunting; rs3=severe stunting.

root knot nematode (RKN) = experiment: RKN greenhouse soil assay on cucumber plants; assay type: in vivo, M. incognita; settings: 7 day treatment, rated 14 days after egg inoculation
Text: Cucumber seeds are planted in a sandy soil mixture in two inch square plastic pots. When the cotyledons are fully opened and just as the first leaf begins to emerge, usually 7 days after planting, chemistry for the 7-day treatment is applied. One week later the chemistry for the 0 day treatment is applied. Separate plants are used for each application. The plants are generally in the 1-2 leaf stage now. At least four hours after the chemistry application the pots are inoculated with root knot nematode (RKN) eggs. Plants are rated for galling 14 days after the egg inoculation.
as §1, §2, §3

C. elegans = C. elegans well test (contact assay); assay type: cell-based; settings: L1 worms, 20° C.
Procedure: C. elegans: Various compounds were tested for nematicidal activity against C. elegans using contact assays in wells. The assays were performed as described below. The test compounds were solubilized in DMSO at 10 mg/ml to create 100× stock solutions. A dilution series was created by diluting the stock solution with DMSO. For each well assay 4 ul of the appropriate dilution is added to a well of a test plate. A 400 ul aliquot of bacterial stock (in M9 buffer with ampicillin) is added to each well of the test plate. Worms are added and the test plate placed on a rotary shaker incubated at 20° C. Worms are examined and scored at 24 hrs, 48 hrs and 72 hours. L1 worms used in the assay are prepared by plating eggs on a plate without a bacterial feeding layer. The eggs hatch and arrest at the L1 stage. This L1 stage population is then used to create a stock for the experiments. A 25 ul aliquot of worms is added to each well in the assay.

H. contortus = H. contortus larval development assay; assay type: cell-based; settings: at 72 hours; hatching and larval movement
Procedure: The assay was performed essentially as described in: Hubert J, Kerboeuf D. A new method for culture of larvae used in diagnosis of ruminant gastrointestinal strongylosis: comparison with fecal cultures. Can J Comp Med. 1984 48(1):63-71. H. contortus eggs were obtained from Myers Parasitology (Magnolia, Ky.). The test compounds were solubilized in DMSO to create […] stock solutions. 2 ul of compound at various concentrations followed by 200 ul of molten agar were mixed into the wells. Approximately 50 eggs were placed in the well and incubated for 24 hours. After this time, >50% of the eggs were hatched in DMSO controls. After 24 hr, 100 ul of growth medium (Earle's salt solution, 1% yeast extract, 0.9% saline, and sodium bicarbonate to pH 7) containing compound was added to allow larval feeding. After 48 hr in growth medium (total of 72 hours) the wells were evaluated for hatching and larval movement.

[3] = 1 ppm, letters a-d mark separate tests

Structure (SMILES) | percent control (cyst reduction) relative to the control blank treatment [1] [%^] | toxicity class [2] | gall ratings (Meloidogyne incognita; [3]) | gall ratings (Meloidogyne incognita; 8 ppm) | percent control (galling reduction) relative to the control blank treatment (root knot nematode (RKN); 0.1 kg/ha rate) [%] | percent control (galling reduction) relative to the control blank treatment (root knot nematode (RKN); 0.25 kg/ha rate) [%] | EC50 (C. elegans; 1 day) | EC50 (C. elegans; 2 days) | EC50 (C. elegans; 3 days) | EC50 (H. contortus)
CNC(=O)O/N=C(\SC)C(=O)N(C)C [Oxamyl, reference compound] | 75 | Class I | – | – | – | – | – | – | – | –
Clc1ccc(-n2nnc(-c3cccs3)n2)cc1 [compound 1] | 24 | – | 0.67 | 0 | 89 | 92 | 0.8 ppm | 0.8 ppm | 0.9 ppm | <6.3 ppm
c1ccc(-n2nnc(-c3cccs3)n2)cc1 [compound 2] | 52 | – | 0.67 | 0.33 | 47 | 53 | > 50 ppm | 0.8 ppm | 0.8 ppm | 6.3-25 ppm
Cc1cc(Cl)ccc1-n1nnc(-c2ccco2)n1 [compound 3] | 44 | – | 1.33 | 0 | – | – | 0.8/0.8/0.8 ppm | 0.8/0.8/0.8 ppm | 0.8/0.8/0.8 ppm | <6.3 ppm
Clc1ccc(-n2nnc(N3CCCC3)n2)cc1 [compound 4] | – | – | 1.33 | 0.33 | – | – | – | – | – | –
Cn1cccc1-c1nnn(-c2ccccc2)n1 [compound 5] | – | – | 2.33 | 0.00 | – | – | – | – | – | –
c1ccc(-c2nnn(-c3cccs3)n2)cc1 [compound 6] | – | – | 1.33 | 0.00 | – | – | – | – | – | –
c1ccc(-n2nnc(-n3cccc3)n2)cc1 [compound 7] | – | – | 1.67 | 0.33 | – | – | – | – | – | –
